# Experimental data taken from patent US20220071996A1, “ORAL FORMULATIONS OF BRANAPLAM” (NOVARTIS AG, priority 2018, published 2022).
# Legend:
# [1] = test system: infants with Type I Spinal Muscular Atrophy; assay: open-label first-in-human proof of concept study of oral branaplam; format: in vivo
# Method: Clinical Trial: An Open-Label Multi-Part First-In-Human Proof of Concept Study of Oral Branaplam in Infants with Type I Spinal Muscular Atrophy. • Part 1: The aim of part one of this study was to determine the safety and tolerability of ascending weekly doses and to estimate the maximum tolerated dose (MTD) of oral/enteral branaplam in infants with Type 1 SMA. All patients had exactly 2 copies of the SMN2 gene. • In part one of the study, patients were dosed once weekly with branaplam. The branaplam doses were escalated in subsequent cohorts until MTD was determined or when PK results confirmed that the MTD could not be reached due to a potential pharmacokinetic exposure plateau at higher doses. A decision to dose escalate the next cohort was made after safety data had been collected for 14 days following the first dose. Patients completing 13 weeks of treatment were considered to have completed the study. The starting dose was 6 mg/m^2 (approximately 0.3125 mg/kg). Subsequent doses were 12 mg/m^2, 24 mg/m^2, 48 mg/m^2 and 60 mg/m^2 (approximately 0.625 mg/kg, 1.25 mg/kg, 2.5 mg/kg and 3.125 mg/kg, respectively). Each cohort had 2-3 patients. All doses are of branaplam in free form. 14 patients were enrolled in Part 1; 13 patients were exposed to branaplam. The duration of exposure ranged from 4-33 months, 7 patients remain in the study. Six of the 7 patients are receiving 60 mg/m^2, 1 patient is receiving 48 mg/m^2.
# Preliminary Safety Results • AEs/SAEs: 455 AEs were reported in the 13 patients; the vast majority were attributed to the underlying disease. Seventy-nine SAEs occurred associated with 59 hospitalizations of which 39 of the 59 hospitalizations were for respiratory events or infections. • Deaths: A total of five patients have died, all from ventilatory failure due to their underlying disease.
# Part 2 of the study will enroll patients into 2 cohorts: cohort 1 at a 0.625 mg/kg dose and cohort 2 at a 2.5 mg/kg dose. The selected dose levels of 0.625 mg/kg and 2.5 mg/kg are based on all safety data from Part 1, as well as, all data from chronic juvenile toxicity studies available at the time of initiation of Part 2. Six to 10 patients will be enrolled in cohorts 1 and 2. A total of a minimum of 12 and maximum of 20 patients will be enrolled and treated for 52 weeks. • Starting dose: The dose of 0.625 mg/kg (corresponding to 12 mg/m^2) is chosen as a starting dose in Part 2 based on safety and preliminary efficacy data collected in Part 1 of the study. Indeed, following an USM treatment with branaplam continued but at a reduced dose of 6 mg/m^2 (0.3125 mg/kg) for all patients who had completed the initial 13 weeks of treatment. This dose was predicted to be efficacious based upon the preliminary clinical (CHOP INTEND) response of patients in Cohort 1. […] For that reason and also given the preliminary efficacy data collected in patients treated with branaplam at 12 mg/m^2 (0.625 mg/kg) it was decided to take this dose as a starting dose in Part 2. • Second dose: The dose of 2.5 mg/kg (corresponding to 48 mg/m^2) is selected as the second dose in Part 2 being 4-fold higher than the starting dose of 0.625 mg/kg (corresponding to 12 mg/m^2). The difference between 0.625 mg/kg and 2.5 mg/kg is considered to be sufficient to ensure appropriate separation in terms of systemic branaplam exposure and potentially also of efficacy endpoints.
# [2] = measured pKas of branaplam; format: physicochemical; conditions: acid
compound,measurement,setting,value
"CC1(C)CC(Oc2ccc(-c3ccc(-c4cn[nH]c4)cc3O)nn2)CC(C)(C)N1 [branaplam, 5-(1H-pyrazol-4-yl)-2-(6-((2,2,6,6-tetramethylpiperidin-4-yl)oxy)pyridazin-3-yl)phenol]",decrease of CHOP INTEND scores,[1]; 13 weeks of treatment,no significant decrease was observed in any patient
same,Deaths (patients),[1]; all from ventilatory failure due to underlying disease,five
same,AEs reported,"[1]; human, in vivo",455
same,hospitalizations associated with SAEs,"[1]; human, in vivo",59
same,hospitalizations for respiratory events or infections,"[1]; human, in vivo",39
same,Clinical status,[1]; in vivo,do not follow the normal disease course for Type 1 SMA patients
same,SAEs,[1]; in vivo,Seventy-nine
same,patients who reached a CHOP INTEND score of >36,[1]; in vivo,Eight
same,patients without feeding support after more than one year of treatment,[1]; in vivo,six
same,patients without feeding support after more than two years of treatment,[1]; in vivo,five
same,safety events following dose reduction,[1]; in vivo,"decrease of motor skills, generalized motor weakness and increased respiratory muscle weakness"
same,treated patients without feeding support at around 8 months of age,[1]; in vivo,Ten
same,dose limiting toxicity,"[1]; in vivo, po",No dose limiting toxicity was observed
same,Death or permanent ventilation endpoint,[1]; natural history median age 13.5 months,majority of treated patients have not met this endpoint
same,HINE Section 2: patients who achieved independent sitting,[1]; of the 11 patients evaluated,one
same,patients with progressive and substantial increase of CHOP INTEND scores,"[1]; po, 2184 h",7
same,patients without any ventilatory support with BiPAP,[1]; treated for more than two years,Four
same,pKa,[2],11.5
